Experimental data from US20090227648A1, “PYRAZOLE DERIVATIVES USEFUL FOR THE TREATMENT OF CANCER” (AstraZeneca AB, priority 2004, published 2009).

Molecular target: T1, human Trk A kinase (Homo sapiens, UniProt P04629)
T1 construct: HIS; made in house; host or cells: SF9 insect cells
Test: Trk A kinase Alphascreen assay
Type: biochemical
Settings: intracellular domain of HIS-tagged human Trk A (aa 442-796), 70 μM ATP, 20 minutes, room temperature; read-out: Trk A inhibitory activity IC50
Protocol: Trk A kinase activity was measured for its ability to phosphorylate synthetic tyrosine residues within a generic polypeptide substrate using an Amplified Luminescent Proximity Assay (Alphascreen) technology (PerkinEilmer, 549 Albany Street, Boston, Mass.).
To measure Trk A kinase activity, the intracellular domain of a HIS-tagged human Trk A kinase (amino acids 442-796 of Trk A, Swiss-Prot Primary Accession Number P04629) was expressed in SF9 cells and purified using standard nickel column chromatography. After incubation of the kinase with a biotinylated substrate and adenosine triphosphate (ATP) for 20 minutes at room temperature, the kinase reaction was stopped by the addition of 30 mM ethylenediaminetetraacetic acid (EDTA). The reaction was performed in 384 well microtitre plates and the reaction products were detected with the addition of strepavidin coated Donor Beads and phosphotyrosine-specific antibodies coated Acceptor Beads using the EnVision Multilabel Plate Reader after an overnight incubation at room temperature.

T1 sequence (P04629 442-796): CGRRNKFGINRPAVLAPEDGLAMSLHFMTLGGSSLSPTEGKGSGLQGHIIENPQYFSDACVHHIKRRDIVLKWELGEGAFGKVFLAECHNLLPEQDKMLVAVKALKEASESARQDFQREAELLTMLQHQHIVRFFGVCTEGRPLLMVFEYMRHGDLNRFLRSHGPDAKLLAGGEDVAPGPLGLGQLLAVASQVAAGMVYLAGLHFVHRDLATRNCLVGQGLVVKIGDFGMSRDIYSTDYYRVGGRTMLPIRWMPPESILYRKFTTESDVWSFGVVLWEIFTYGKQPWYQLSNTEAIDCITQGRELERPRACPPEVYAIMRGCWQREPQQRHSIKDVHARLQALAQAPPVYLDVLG

IC50	Structure (SMILES)
859 nM	N#Cc1cc([N+](=O)[O-])c(Nc2cc(C3CC3)[nH]n2)cc1N[C@@H](CO)c1ccc(F)cc1 [Example 10, (R)-4-(5-Cyclopropyl-1H-pyrazol-3-ylamino)-2-(1-(4-fluorophenyl)-2-hydroxyethylamino)-5-nitrobenzonitrile]
426 nM	C[C@H](Nc1cc(Nc2cc(C3CC3)[nH]n2)c([N+](=O)[O-])cc1F)c1ccc(F)cc1 [Example 13, (S)—N^1-(5-Cyclopropyl-1H-pyrazol-3-yl)-4-fluoro-N^3-(1-(4-fluorophenyl)ethyl)-6-nitrobenzene-1,3-diamine]
1240 nM	C[C@H](Nc1cc(NCCO)c([N+](=O)[O-])c(Nc2cc(C3CC3)[nH]n2)c1)c1ccc(F)cc1 [Example 17, (S)-2-(3-(5-Cyclopropyl-1H-pyrazol-3-ylamino)-5-(1-(4-fluorophenyl)ethylamino)-2-nitrophenylamino)ethanol]
